Patent US20250161307A1, “PYRAZOLOPYRIMIDINES AS MODULATORS OF SPERMINE OXIDASE” (Janssen Pharmaceutica NV, priority 2022, published 2025)
Counter-ions that a name gives are not always drawn.

Tests used:
SMOX = SMOX (Homo sapiens (Human), UniProt Q9NWM0); assay: Human SMOX assay (HyPerBlu chemiluminescent detection of hydrogen peroxide); assay type: biochemical; settings: 2.5 nM full length hSMOX, spermine substrate, 1 h at room temperature, luminescence read; read-out: SMOx_IC50
Description: (§1) The direct detection of hydrogen peroxide produced from the enzymatic reaction of hSMOX or hPAOX in a biochemical assay format was measured using HyPerBlu (Lumigen, Southfield, MI), a small molecule boronate probe that reacts with hydrogen peroxide to generate a chemiluminescent signal. Inhibition of hSMOX or hPAOX enzyme results in a decrease in luminescence.
Test compounds (75 nL) dissolved in DMSO were added to a 384-well white assay plate (Greiner Bio-one, catalog #784075) using an ECHO Acoustic Dispenser (Labcyte). Each compound was serially diluted 3-fold in DMSO to prepare an 11-point dose response curve (columns 1-22). Column 23 and 24 contained 75 nL of 2 mM chlorhexidine and DMSO, respectively, to represent the 100% inhibited versus the neutral control reactions.
Subsequently, 3 μL/well of the substrate solution prepared in assay buffer (10 mM Hepes, pH 7.4, 150 mM NaCl, 1 mM EGTA, 0.01% Pluronic F-127, 0.05% ovalbumin) was dispensed into the assay plate followed by 3 μL/well of full length hSMOX enzyme with an N-terminal His tag from E. coli prepared in assay buffer to initiate the reactions. After a 1 h incubation at room temperature, 6 μL/well of HyPerBlu was added. After a 30 min incubation, the hydrogen peroxide product generated from the hSMOX reactions was measured using an endpoint luminescence read on the PHERAStar FS/FSX microplate reader (BMG LABTECH).
The final assay conditions included 10 mM Hepes, pH 7.4, 150 mM NaCl, 1 mM EGTA, 0.01% Pluronic F-127, 0.05% ovalbumin, 2.5 nM hSMOX, 30 µM spermine, and 1.25% DMSO.
Dose-response curves were fit and compound IC50 values were determined using Genedata Screener (Genedata AG).

hPAOX = hPAOX (Homo sapiens (Human), UniProt Q6QHF9); assay: Human PAOX assay (HyPerBlu chemiluminescent detection of hydrogen peroxide); assay type: biochemical; settings: 60 pM recombinant PAOX, 20 μM N-acetylspermine substrate
Chain of hPAOX (Q6QHF9 whole entry): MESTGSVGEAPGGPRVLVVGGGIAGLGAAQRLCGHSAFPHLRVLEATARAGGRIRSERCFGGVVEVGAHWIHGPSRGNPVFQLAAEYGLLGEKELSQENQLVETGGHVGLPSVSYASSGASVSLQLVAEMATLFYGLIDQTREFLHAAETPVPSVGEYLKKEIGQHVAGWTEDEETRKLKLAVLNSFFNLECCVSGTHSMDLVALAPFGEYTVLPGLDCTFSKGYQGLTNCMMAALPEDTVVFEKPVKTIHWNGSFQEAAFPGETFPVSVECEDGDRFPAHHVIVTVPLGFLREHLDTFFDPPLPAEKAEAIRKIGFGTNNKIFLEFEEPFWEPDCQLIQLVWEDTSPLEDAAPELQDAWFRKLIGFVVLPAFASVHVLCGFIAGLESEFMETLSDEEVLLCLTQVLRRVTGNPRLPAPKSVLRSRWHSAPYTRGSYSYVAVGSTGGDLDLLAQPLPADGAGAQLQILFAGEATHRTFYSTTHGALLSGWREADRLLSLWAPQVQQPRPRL
Description: as §1
The hPAOX assay was run and the data analyzed similarly to the hSMOX assay described above, except the reactions contained 60 pM recombinant PAOX with an N-terminal His tag expressed from sf9 insect cells and used 20 μM N-acetylspermine as the substrate.

Chain of SMOX (Q9NWM0 whole entry): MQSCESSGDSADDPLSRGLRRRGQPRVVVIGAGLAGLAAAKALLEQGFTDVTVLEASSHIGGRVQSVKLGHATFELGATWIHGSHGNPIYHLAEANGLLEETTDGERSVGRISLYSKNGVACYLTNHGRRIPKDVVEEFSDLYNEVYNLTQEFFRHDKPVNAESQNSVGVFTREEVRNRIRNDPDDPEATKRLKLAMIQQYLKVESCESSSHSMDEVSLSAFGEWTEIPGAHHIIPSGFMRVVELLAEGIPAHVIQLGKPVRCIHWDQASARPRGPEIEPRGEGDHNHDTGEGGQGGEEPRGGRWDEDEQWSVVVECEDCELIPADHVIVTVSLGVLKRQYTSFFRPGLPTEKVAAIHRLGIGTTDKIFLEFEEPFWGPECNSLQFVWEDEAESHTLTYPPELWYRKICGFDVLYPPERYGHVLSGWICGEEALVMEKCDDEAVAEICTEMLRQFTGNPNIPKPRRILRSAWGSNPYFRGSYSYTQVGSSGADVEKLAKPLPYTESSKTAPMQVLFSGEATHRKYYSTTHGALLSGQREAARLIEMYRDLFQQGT

Row | Compound | IC50 (SMOX) | IC50 (hPAOX)
1 | O=C(NCCCc1cccnc1)c1cc2nc(-c3ccccc3)cc(-c3ccccc3)n2n1 [Example 31, 5,7-Diphenyl-N-(3-(pyridin-3-yl)propyl)pyrazolo[1,5-a]pyrimidine-2-carboxamide] | 900 nM | 2100 nM
2 | Cc1c(C(=O)NCC2(C)CCN(C)C2)nn2c(-c3ccccc3)cc(-c3ccccc3)nc12 (stereo not drawn) [Example 54, N-((1,3-Dimethylpyrrolidin-3-yl)methyl)-3-methyl-5,7-diphenylpyrazolo[1,5-a]pyrimidine-2-carboxamide] | 1490 nM | 30300 nM
3 | CC(=O)Nc1ccc(-c2cc(-c3ccccc3)nc3cc(C(=O)NCCCn4ccnc4)nn23)cc1 [Example 95, N-(3-(1H-imidazol-1-yl)propyl)-7-(4-acetamidophenyl)-5-phenylpyrazolo[1,5-a]pyrimidine-2-carboxamide] | > 31200 nM | 2070 nM
4 | O=C(NCCN1CCOCC1)c1cc2nc(-c3ccccc3)cc(-c3ccccc3)n2n1 [Example 122, N-(2-morpholinoethyl)-5,7-diphenylpyrazolo[1,5-a]pyrimidine-2-carboxamide] | 20600 nM | > 31200 nM
5 | NCCCNC(=O)c1cc2nc(-c3ccccc3)cc(-c3ccccc3)n2n1 [Example 116, N-(3-aminopropyl)-5,7-diphenylpyrazolo[1,5-a]pyrimidine-2-carboxamide] | 296 nM | 119 nM
6 | CC1C(NC(=O)c2cc3nc(-c4ccccc4)cc(-c4ccccc4)n3n2)CN1C (stereo not drawn) [Example 55, N-(1,2-Dimethylazetidin-3-yl)-5,7-diphenylpyrazolo[1,5-a]pyrimidine-2-carboxamide] | 593 nM | 6530 nM
7 | CN1CCC(C)(CNC(=O)c2nn3c(-c4ccccc4)cc(-c4ccccc4)nc3c2I)C1 (stereo not drawn) [Example 48, N-((1,3-Dimethylpyrrolidin-3-yl)methyl)-3-iodo-5,7-diphenylpyrazolo[1,5-a]pyrimidine-2-carboxamide] | 698 nM | 7590 nM
8 | O=C(NCCCNc1ccccn1)c1cc2nc(-c3ccccc3)cc(-c3ccccc3)n2n1 [Example 26, 5,7-Diphenyl-N-(3-(pyridin-2-ylamino)propyl)pyrazolo[1,5-a]pyrimidine-2-carboxamide] | 324 nM | 22 nM
9 | O=C(NCCN1CCC1)c1cc2nc(-c3ccccc3)cc(-c3ccccc3)n2n1 [Example 36, N-(2-(Azetidin-1-yl)ethyl)-5,7-diphenylpyrazolo[1,5-a]pyrimidine-2-carboxamide] | 360 nM | 995 nM
10 | O=C(NCCCn1ccnc1)c1cc2nc(-c3ccccc3)cc(-c3cccnc3)n2n1 [Example 96, N-(3-(1H-imidazol-1-yl)propyl)-5-phenyl-7-(pyridin-3-yl)pyrazolo[1,5-a]pyrimidine-2-carboxamide] | 1250 nM | 6910 nM
11 | CCN1CCC(NC(=O)c2cc3nc(-c4ccccc4)cc(-c4ccccc4)n3n2)C1 (stereo not drawn) [Example 5, N-(1-Ethylpyrrolidin-3-yl)-5,7-diphenylpyrazolo[1,5-a]pyrimidine-2-carboxamide] | 367 nM | 914 nM
12 | CC(CN)CNC(=O)c1cc2nc(-c3ccccc3)cc(-c3ccccc3)n2n1 (stereo not drawn) [Example 120, N-(3-amino-2-methylpropyl)-5,7-diphenylpyrazolo[1,5-a]pyrimidine-2-carboxamide hydrochloride] | 582 nM | 1220 nM
13 | O=C(NCCNc1ccccn1)c1cc2nc(-c3ccccc3)cc(-c3ccccc3)n2n1 [Example 28, 5,7-Diphenyl-N-(2-(pyridin-2-ylamino)ethyl)pyrazolo[1,5-a]pyrimidine-2-carboxamide] | 156 nM | 85 nM
14 | CN1CC(NC(=O)c2cc3nc(-c4ccccc4C(F)(F)F)cc(-c4ccccc4)n3n2)C1 [Example 103, N-(1-methylazetidin-3-yl)-7-phenyl-5-(2-(trifluoromethyl)phenyl)pyrazolo[1,5-a]pyrimidine-2-carboxamide] | 3120 nM | 547 nM
15 | O=C(NCCc1ncc[nH]1)c1cc2nc(-c3ccccc3)cc(-c3ccccc3)n2n1 [Example 25, N-(2-(1H-Imidazol-2-yl)ethyl)-5,7-diphenylpyrazolo[1,5-a]pyrimidine-2-carboxamide] | 253 nM | 35 nM
16 | COc1cccc(-c2cc(-c3ccccc3)nc3cc(C(=O)NCCCn4ccnc4)nn23)c1 [Example 82, N-(3-(1H-imidazol-1-yl)propyl)-7-(3-methoxyphenyl)-5-phenylpyrazolo[1,5-a]pyrimidine-2-carboxamide] | 256 nM | 291 nM
17 | CN1CCC(NC(=O)c2nn3c(-c4ccccc4)cc(-c4ccccc4)nc3c2I)C1 (stereo not drawn) [Example 47, 3-Iodo-N-(1-methylpyrrolidin-3-yl)-5,7-diphenylpyrazolo[1,5-a]pyrimidine-2-carboxamide] | 125 nM | 20600 nM
18 | CN1CC(N(C)C(=O)c2cc3nc(-c4ccccc4)cc(-c4ccccc4)n3n2)C1 [Example 45, N-Methyl-N-(1-methylazetidin-3-yl)-5,7-diphenylpyrazolo[1,5-a]pyrimidine-2-carboxamide] | 1820 nM | 11600 nM
19 | CN(CCCNC(=O)c1cc2nc(-c3ccccc3)cc(-c3ccccc3)n2n1)c1ccccn1 [Example 32, N-(3-(Methyl(pyridin-2-yl)amino)propyl)-5,7-diphenylpyrazolo[1,5-a]pyrimidine-2-carboxamide] | 850 nM | 6220 nM
20 | CN1CC[C@H](NC(=O)c2cc3nc(-c4ccccc4)cc(-c4ccccc4)n3n2)C1 [Example 7, (S)—N-(1-Methylpyrrolidin-3-yl)-5,7-diphenylpyrazolo[1,5-a]pyrimidine-2-carboxamide] | 712 nM | 1330 nM

The next lines start with the values.

Row | IC50 (SMOX) | IC50 (hPAOX) | Compound
21 | 1750 nM | 3070 nM | O=C(NCCCn1ccnc1)c1cc2nc(-c3ccccc3)cc(C3CCCO3)n2n1 (stereo not drawn) [Example 110, N-(3-(1H-imidazol-1-yl)propyl)-5-phenyl-7-(tetrahydrofuran-2-yl)pyrazolo[1,5-a]pyrimidine-2-carboxamide]
22 | 177 nM | 3600 nM | CN1CC(NC(=O)c2cc3nc(-c4ccccc4)cc(N4CCC[C@@H](O)C4)n3n2)C1 [Example 67, (R)-7-(3-hydroxypiperidin-1-yl)-N-(1-methylazetidin-3-yl)-5-phenylpyrazolo[1,5-a]pyrimidine-2-carboxamide]
23 | 7710 nM | 7080 nM | CN1CC(NC(=O)c2cc3nc(N4CCCCC4)cc(-c4ccccc4)n3n2)C1 [Example 99, N-(1-methylazetidin-3-yl)-7-phenyl-5-(piperidin-1-yl)pyrazolo[1,5-a]pyrimidine-2-carboxamide]
24 | 779 nM | 1460 nM | O=C(NCCCn1ccnc1)c1cc2nc(-c3ccccc3)cc(NC3CCC3)n2n1 [Example 64, N-(3-(1H-Imidazol-1-yl)propyl)-7-(cyclobutylamino)-5-phenylpyrazolo[1,5-a]pyrimidine-2-carboxamide]
25 | 297 nM | 129 nM | O=C(NCCCCN1CCCC1)c1cc2nc(-c3ccccc3)cc(-c3ccccc3)n2n1 [Example 30, 5,7-Diphenyl-N-(4-(pyrrolidin-1-yl)butyl)pyrazolo[1,5-a]pyrimidine-2-carboxamide]
26 | 1030 nM | 4210 nM | CN1CC[C@H](NC(=O)c2cc3nc(-c4ccccc4)cc(N4CCCCC4)n3n2)C1 (single isomer, unassigned) [Example 73, (*S)—N-(1-methylpyrrolidin-3-yl)-5-phenyl-7-(piperidin-1-yl)pyrazolo[1,5-a]pyrimidine-2-carboxamide trifluoroacetate]
27 | 956 nM | 470 nM | O=C(NCCCn1ccnc1)c1cc2nc(-c3ccccc3)cc(C3CCC3)n2n1 [Example 109, N-(3-(1H-imidazol-1-yl)propyl)-7-cyclobutyl-5-phenylpyrazolo[1,5-a]pyrimidine-2-carboxamide]
28 | 9770 nM | 4040 nM | Cc1cc(-c2ccccc2)nc2cc(C(=O)NCCCn3ccnc3)nn12 [Example 123, N-(3-(1H-imidazol-1-yl)propyl)-7-methyl-5-phenylpyrazolo[1,5-a]pyrimidine-2-carboxamide]
29 | 930 nM | 3360 nM | CN(C)CCCNC(=O)c1cc2nc(-c3ccccc3)cc(N3CCCCC3)n2n1 [Example 70, N-(3-(dimethylamino)propyl)-5-phenyl-7-(piperidin-1-yl)pyrazolo[1,5-a]pyrimidine-2-carboxamide]
30 | 595 nM | 2450 nM | O=C(NCCCn1ccnc1)c1cc2nc(-c3ccccc3)cc(NC3CCCC3)n2n1 [Example 65, N-(3-(1H-imidazol-1-yl)propyl)-7-(cyclopentylamino)-5-phenylpyrazolo[1,5-a]pyrimidine-2-carboxamide]
